The test system of test [1] is tumor growth. The test can be described thus: Tumor growth in Rnf5−/− mice treated with chemical chaperone. It counts as in vivo, mouse. Particulars: treatment to alleviate ER stress. From the text:
To understand the mechanism by which altered function of Rnf5^−/− mice might influence the anti-tumor immune response, changes in the intestinal epithelial cells (IECs) were examined, which cells play critical roles in both innate and adaptive immunity.

The test system of test [2] is tumor growth. The test can be described thus: Fecal microbiota analysis of Rnf5−/− and WT tumor bearing mice. It counts as in vivo, mouse. Particulars: Rnf5−/− vs WT microbiota. How it is done:
The fecal microbiota of Rnf5^−/− and WT mice were analyzed. […] Of those, increased relative abundance of several bacterial taxa (including Bacteroides spp., B. acidifaciens, B. chinchilla, B. xylanisolvens, Parabacteroides merdae, Porphyromonas canis, Rickenella microfusus) and decreased abundance of others (including unclassified Bifidobacterium spp., B. choerinum, Odoribacter denticanis, Parabacteroides goldsteinii, unclassified Olivibacter, Parapedobacter koreensis) typified the microbiome of Rnf5^−/− mice bearing tumors, compared with the WT genotype.
The fecal microbiota of Rnf5−/− and WT mice were further analyzed. Marked differences in the microbial profiles were observed, highlighting differences in community structure depicted in principle component analysis that distinctly segregated Rnf5^−/− from WT microbiota. Analysis of microbiota allowed the identification of 42 phylotypes that distinguished Rnf5^−/− and WT microbiota in tumor bearing mice (FIG. 7). These phylotypes are dominated by a few taxonomic groups, the largest of which fall into the Clostridium cluster (37%). All but four of these may be assigned to Clostrium cluster IV or XIVa, known to be capable of producing butyrate that may influence Foxp3^+ Treg cells expansion. […]

A further test concerns MC-38 cells. Briefly: Growth of MC-38 colon cancer tumors in C57BL/6 mice given mucin or inulin. It counts as in vivo, mouse. The text has this:
(§1) FIG. 6A depicts growth of SW1 TLR4-mutant tumor cells in C3H/HeJ TLR4 mutant mice provided with control diet, alone or with supplemented mucin or inulin starting 14 days prior to tumor inoculation (n=10). FIG. 6B depicts growth of MC-38 tumors in C57BL/6 mice (n=10) that received, starting 14 days prior to tumor inoculation, control diet, alone or with supplemented mucin or inulin. FIG. 6C depicts tumor volume in C57BL/6 mice (n=10 per group) injected (s.c.) with a melanoma cell line (N-Ras mutant; 1×10^6 cells). The mice were provided control or inulin or mucin supplemented diet. When tumors reached a volume of […], mice were treated with MEKi (PD325901) administered by gavage (10 mg/kg, daily), alone or in combination with inulin or mucin, as indicated. Tumor volume was assessed every 4 days.
Next, it was determined whether mucin or inulin are also able to impact growth of colon cancer cells, representative of a different tumor type. Growth of MC-38 cells injected to WT mice was attenuated by inulin but not mucin (FIG. 6B). […] Corresponding increase in CD4, CD8, CD45 and DC, including pDC and mDC and MHC-I expression on DC, was identified in tumors subjected to the MEKi+inulin treatment.

The subject of another test is human fecal samples. Briefly: Anaerobic cultivation of fecal samples with a sole carbohydrate source. Type of test: cell-based. Particulars: in vitro, unpublished results. The text has this:
(§2) FIG. 4A depicts plots of human fecal samples cultivated under anaerobic conditions in chemically defined medium with or without exogenous carbohydrate (n=6). Relative abundance of taxa encoding extensive glycosyl hydrolase activities. Cultures with no exogenous sugar were compared to cultures with N-acetyl-mannosamine, galactomannan and porcine gastric mucin. […] FIG. 4C depicts computer simulation identifies the uptake rates of mucin and inulin degradation products in the 2 media predicted to sustain the WT and Rnf5^−/− communities, showing higher predicted consumption of mucin and inulin products in the Rnf5^−/− community. FIG. 4D depicts YUMM1.5 tumor growth in WT or Rnf5^−/− mice provided with 0 or 3% mucin in drinking water starting 14 days prior to tumor inoculation (n=15). FIG. 4E depicts growth of Yumm1.5 tumors in WT or Rnf5^−/− received a control diet or a diet enriched 15% inulin 14 days prior to and during tumor inoculation (n=15). FIG. 4F depicts fold-changes of median abundances between Rnf5^−/−, mucin and inulin treated and WT mice, for 30 taxa that discriminate tumor attenuating and non-attenuating phenotypes.
The differences in the gut microbiota of Rnf5^−/− and WT mice before and during tumor formation highlighted a functionally coherent group of species that define a food web enriched for species encoding extensive glycosyl hydrolase activities. […]

In the next test the test system is SW1 cells. The test can be described thus: Growth of SW1 melanoma in TLR4 mutant C3H/HeJ mice given mucin or inulin. It counts as in vivo, mouse.
Text: as §1
To determine whether TLR4, the receptor for bacterial lipopolysaccharides, might be involved in the mucin-induced anti-tumor immune phenotype, the growth of mouse melanoma SW1 cells was examined in Tlr4^−/− C3H/HeJ mice.

The next test concerns YUMM1.5 melanoma cells. The test can be described thus: YUMM1.5 melanoma tumor growth in WT or Rnf5−/− mice given mucin or inulin. It counts as in vivo, mouse. The note with it: 3% mucin in drinking water or 15% inulin diet from 14 days prior to tumor inoculation.
Text: as §2
To test this directly it was investigated whether administration of mucin to WT mice could phenocopy Rnf5^−/− mice, in terms of tumor growth, immune response and gut microbiota composition. […]

The test system of test [3] is tumor-infiltrating immune cells. The test can be described thus: Tumor-infiltrating immune cells and immune gene transcription in mucin- or inulin-fed mice. Type of test: in vivo, mouse. The text has this:
To test this directly it was investigated whether administration of mucin to WT mice could phenocopy Rnf5^−/− mice, in terms of tumor growth, immune response and gut microbiota composition. […] This prompted us to use machine learning to identify phylotypes that best distinguished WT (non-attenuated tumor growth) from Rnf5^−/− and WT mice treated with mucin or inulin (attenuated tumor growth). […] The immune status of mucin and inulin-fed WT mice also shifted to resemble that of Rnf5′ mice.

Entries after “also recorded” stand apart in the source; their conditions may differ.

As for `O=C(O)CCCc1ccccc1` [4-phenylbutyrate], the tumor growth result in the test with tumor growth [1] is given as “did not affect tumor growth”.
As for Clostridium clostridioforme, the “association of bacterial strain with tumor growth” value in the test with tumor growth [2] is given as “associated with inhibition of tumor growth”.
In the case of inulin, the “infiltration of MHC-I and MHC-I on DC cells” value in the test on MC-38 cells (MC-38 tumors) was “increase in the infiltration”. The “growth of MC-38 cells” value with MC-38 cells (WT C57BL/6 mice, supplemented diet from 14 days prior to inoculation) was “attenuated”. In addition, the “communities generated in fecal cultivation” value in the test with human fecal samples is recorded as “generated communities similar to that of gastric mucin”. Moreover, the melanoma growth result in the test with SW1 cells (SW1 cells in Tlr4−/− C3H/HeJ mice, supplemented diet from 14 days prior to inoculation) is on record as “failed to significantly attenuate melanoma growth”. Moreover, the “CD8+ T cells and TNF-α-producing tumor-infiltrating CD4+ T cells” value in the test on SW1 cells (SW1 tumors in Tlr4−/− C3H/HeJ mice) was “not”. Moreover, the melanoma tumor growth result in the test on YUMM1.5 melanoma cells is “attenuate melanoma growth; also recorded: reduced tumor growth”; in the test with YUMM1.5 melanoma cells (listed as Inulin) it was “effective inhibition of melanoma growth”. The “tumor infiltrating immune cell phenotype” value in test [3] (WT mice, tumor) is on record as “increased tumor infiltration of immune cells”. Also, in test [3] (shift to that seen in Rnf5−/− mice, albeit to a lower extent), the “transcription of immune-related genes” value is recorded as “induced a shift”.

(Values after patent US11571446B2, “Gut microbiota and treatment of cancer” (Sanford Burnham Prebys Medical Discovery Institute, priority 2016, dated 2023).)
